System: H2122 human lung cancer line, m855 mouse GEM line, diffuse large B-cell lymphoma and Burkitt's lymphoma cell lines
Assay: Combination with JQ1, cell viability isobolograms (cell line not stated for the result)
Assay type: cell-based
Details: for Effect on JQ1 activity at doses where the agent alone has no effect: in combination with JQ1, doses where they alone have no effect
Experimental: Compounds were profiled against H2122 human lung cancer line and m855 mouse GEM line containing p53/kRas mutations. Compounds were also profiled against diffuse large B-cell lymphoma cell lines OCI-Ly1, OCI-Ly3, OCI-Ly4, OCI-Ly7, S-DHL4, SU-DHL6, SU-DHL7, HBL1, K422, U2932 and Toledo, and against Burkitt's lymphoma cell lines Raji and Ca46.
Using a Biotek EL406, 50 uL of cell media containing 20-60,000 cells/ml was distributed into white 384-well Nunc plates (Thermo). Suspension cells then received compound immediately while adherent cells lines were given one hour to reattach to the surface of the plate prior to compound addition. The compounds to be tested were dissolved in DMSO and arrayed on 384 well compound storage plates (Greiner). Each compound plate received one compound in 5 point dose response approximately centered on the IC50 of the given compound for a given cell line.
After addition of compound, cell plates were incubated for 72 hr in a […] incubator. Cell viability was evaluated using ATPlite (Perkin Elmer) following manufacturer protocols. Data was analyzed in CalcuSyn utilizing the median effect principle of presented by Chou-Talalay and visualized using GraphPad Prism Software. Key parameters assessed were combination index and dose reduction index.
Points below the 1 to 1 line connecting the X and Y axes are ‘synergistic’, points near the line are ‘additive’, and points above it are antagonistic.

SMILES: C[C@@H](Oc1cc(-c2cnn(C3CCNCC3)c2)cnc1N)c1c(Cl)ccc(F)c1Cl [crizotinib]
- Type of response when administered in combination with JQ1 (isobologram): synergistic response

SMILES: Cn1c(=O)n(-c2ccc(C(C)(C)C#N)cc2)c2c3cc(-c4cnc5ccccc5c4)ccc3ncc21 [BEZ235]
- Type of response when administered in combination with JQ1 (isobologram): additive effects
- Effect on JQ1 activity at doses where the agent alone has no effect: increased the effect of JQ1

SMILES: CO[C@H]1C[C@@H]2CC[C@@H](C)[C@@](O)(O2)C(=O)C(=O)N2CCCC[C@H]2C(=O)O[C@H]([C@H](C)C[C@@H]2CC[C@@H](OC(=O)C(C)(CO)CO)[C@H](OC)C2)CC(=O)[C@H](C)/C=C(\C)[C@@H](O)[C@@H](OC)C(=O)[C@H](C)C[C@H](C)/C=C/C=C/C=C/1C [temsirolimus]
- Type of response when administered in combination with JQ1 (isobologram): additive effects
- Effect on JQ1 activity at doses where the agent alone has no effect: increased the effect of JQ1

SMILES: NC1(c2ccc(-c3nc4ccn5c(=O)[nH]nc5c4cc3-c3ccccc3)cc2)CCC1 [MK2206]
- Type of response when administered in combination with JQ1 (isobologram): synergistic response

SMILES: COc1cc([C@@H]2c3cc4c(cc3[C@@H](O[C@@H]3O[C@@H]5CO[C@@H](C)O[C@H]5[C@H](O)[C@H]3O)[C@H]3COC(=O)[C@H]23)OCO4)cc(OC)c1O [etoposide]
- Type of response when administered in combination with JQ1 (isobologram): synergistic response

From US11446309B2, “Combination therapy for cancer using bromodomain and extra-terminal (BET) protein inhibitors” (Dana-Farber Cancer Institute, Inc., priority 2013, dated 2022)
